PubChem BioAssay (NCI)
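Five concentrations, 48 hours, 96-well plates. At the GI50, growth is halved. TGI denotes the concentration required for complete inhibition of growth.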

How the values were obtained:
Assay in all cases: DTP human tumour cell line panel, 48 h
SF-268 CNS = system: SF-268 CNS
BT-549 breast = system: BT-549 breast
OVCAR-5 ovarian = system: OVCAR-5 ovarian
RXF 393 renal = system: RXF 393 renal
OVCAR-8 ovarian = system: OVCAR-8 ovarian
MDA-MB-231 breast = system: MDA-MB-231 breast
OVCAR-3 ovarian = system: OVCAR-3 ovarian
SNB-75 CNS = system: SNB-75 CNS
NCI-H23 lung = system: NCI-H23 lung
TK-10 renal = system: TK-10 renal
HCT-15 colon = system: HCT-15 colon
HL-60(TB) leukemia = system: HL-60(TB) leukemia
T-47D breast = system: T-47D breast
M14 melanoma = system: M14 melanoma
A549 NSCLC = system: A549 NSCLC
IGROV1 ovarian = system: IGROV1 ovarian
U251 CNS = system: U251 CNS
UACC-257 melanoma = system: UACC-257 melanoma
COLO 205 colon = system: COLO 205 colon
SF-295 CNS = system: SF-295 CNS
SF-539 CNS = system: SF-539 CNS
NCI-H460 lung = system: NCI-H460 lung
SK-MEL-5 melanoma = system: SK-MEL-5 melanoma
SNB-19 CNS = system: SNB-19 CNS
MCF7 breast = system: MCF7 breast
UO-31 renal = system: UO-31 renal
OVCAR-4 ovarian = system: OVCAR-4 ovarian
UACC-62 melanoma = system: UACC-62 melanoma
SW-620 colon = system: SW-620 colon
HCT-116 colon = system: HCT-116 colon
LOX IMVI melanoma = system: LOX IMVI melanoma

In the case of COc1cccc2c1[C@H](OC)[C@]13O[C@@]1(C2=O)[C@H](O)[C@H](C)[C@@](O)(C(=O)[C@@H]1O[C@H]1C)[C@@H]3O, the TGI (SF-268 CNS) is reported as 1030 nM, the TGI (BT-549 breast) is reported as 838 nM and the TGI (OVCAR-5 ovarian) is reported as 859 nM. It also gave a GI50 (RXF 393 renal) of 203 nM, a TGI (RXF 393 renal) of 461 nM and a GI50 (OVCAR-8 ovarian) of 317 nM. It also gave a TGI (OVCAR-8 ovarian) of over 100000 nM, a GI50 (MDA-MB-231 breast) of 237 nM and a TGI (MDA-MB-231 breast) of 657 nM. For the same compound, the TGI (OVCAR-3 ovarian) was 824 nM, the TGI (SNB-75 CNS) was 605 nM and the GI50 (NCI-H23 lung) was 243 nM. The TGI (NCI-H23 lung) was 611 nM, the GI50 (TK-10 renal) was 261 nM and the TGI (TK-10 renal) was 921 nM. For the same compound, the GI50 (HCT-15 colon) was 313 nM, the TGI (HCT-15 colon) was 1090 nM and the GI50 (HL-60(TB) leukemia) was 238 nM. For the same compound, the TGI (HL-60(TB) leukemia) was 696 nM, the TGI (T-47D breast) was 1860 nM and the TGI (M14 melanoma) was 534 nM. It also gave a GI50 (A549 NSCLC) of 297 nM, a TGI (A549 NSCLC) of 10700 nM and a GI50 (IGROV1 ovarian) of 295 nM. It also gave a TGI (IGROV1 ovarian) of 894 nM, a TGI (U251 CNS) of over 33000 nM and a GI50 (UACC-257 melanoma) of 270 nM. For the same compound, the TGI (UACC-257 melanoma) was 818 nM, the GI50 (COLO 205 colon) was 239 nM and the TGI (COLO 205 colon) was 592 nM. It also gave a GI50 (SF-295 CNS) of 285 nM, a TGI (SF-295 CNS) of 943 nM and a TGI (SF-539 CNS) of 698 nM. It also gave a GI50 (NCI-H460 lung) of 326 nM, a TGI (NCI-H460 lung) of 1270 nM and a GI50 (SK-MEL-5 melanoma) of 223 nM. For the same compound, the TGI (SK-MEL-5 melanoma) was 507 nM, the TGI (SNB-19 CNS) was 1060 nM and the TGI (MCF7 breast) was 1120 nM. It also gave a TGI (UO-31 renal) of 800 nM, a GI50 (OVCAR-4 ovarian) of 246 nM and a TGI (OVCAR-4 ovarian) of 642 nM. For the same compound, the GI50 (UACC-62 melanoma) was 263 nM, the TGI (UACC-62 melanoma) was 765 nM and the GI50 (SW-620 colon) was 306 nM. The TGI (SW-620 colon) was over 36000 nM, the TGI (HCT-116 colon) was 1310 nM and the GI50 (LOX IMVI melanoma) was 180 nM. For the same compound, the TGI (LOX IMVI melanoma) was 351 nM.
